Results from patent US8101761B2, “(E)-N-{3-[1-(8-fluoro-11H-10-OXA-1-AZA-dibenzo [A,D] cyclohepten-5ylidene)-propyl]-phenyl}-methanesulfonamide as glucocorticoid receptor modulator for the treatment of rheumatoid arthritis” (Eli Lilly and Company, priority 2008, dated 2012).

Tested on: serum osteocalcin in male Swiss-Webster mice
Assay: Serum osteocalcin assay
Assay type: in vivo, mouse
Conditions: oral, seven days, 3 mg/Kg/day Compound (I) vs 10 mg/Kg/day prednisolone, serum 24 h after last dose
Source text: Bone loss/osteoporosis and the resulting increased risk of fracture is a common and significant adverse effect that results from glucocorticoid therapy. Glucocorticoid induced osteoporosis is believed to result, at least in part, from an inhibition of bone formation. The measurement of serum osteocalcin, a biological marker of bone synthesis, is a recognized tool for assessing the adverse effects of glucocorticoid therapy on bone.
To assess the effects of Compound (I) on bone formation, Compound (I) is formulated in a vehicle comprising 5% carboxymethyl cellulose and 0.25% Tween 80 and administered orally via gavage to sixteen week old male Swiss-Webster mice (Harlan Industries, Indianapolis) for seven days. For comparison, prednisolone is administered orally in the same vehicle. Serum is collected 24 hours after the last dose and osteocalcin levels are determined using a competitive radioimmunoassay modified to a 96 well format. […] The filters are punched and the radioactivity quantitated on a gamma counter. Radioactivity detected on the filters from test samples is inversely proportional to serum osteocalcin concentration. […]

For `CC/C(=C1\c2ccc(F)cc2OCc2ncccc21)c1cccc(NS(C)(=O)=O)c1` [Compound (I), (E)-N-{3-[1-(8-Fluoro-11H-10-oxa-1-aza-dibenzo[a,d]cyclohepten-5-ylidene)-propyl]-phenyl}-methanesulfonamide], the “reduction in serum osteocalcin levels” value was “less reduction in serum osteocalcin levels than prednisolone”.
